“And” between values parts separate entries of the source, which are not always exact repeats. Equal entries are not always repeated.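 Interpolation was linear, between the two tested concentrations surrounding the appropriate level; five concentrations were tested over 48 hours in 96-well plates. GI50: concentration for 50% inhibition of growth. TGI is the concentration that stops growth completely.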
Experiments:
Assay in all cases: inhibition of tumour cell growth, NCI panel, 48 h
[1] = tested on: ACHN renal
[2] = tested on: HT29 colon
[3] = tested on: SF-268 CNS
[4] = tested on: NCI-H460 lung
[5] = tested on: HL-60(TB) leukemia
[6] = tested on: LOX IMVI melanoma
[7] = tested on: SK-MEL-5 melanoma
[8] = tested on: SR leukemia
[9] = tested on: RXF 393 renal
[10] = tested on: OVCAR-4 ovarian

Compound | TGI [1] | TGI [2] | TGI [3] | TGI [4] | TGI [5] | TGI [6] | TGI [7] | TGI [8] | TGI [9] | TGI [10] | GI50 [1] | GI50 [2] | GI50 [3] | GI50 [4] | GI50 [5] | GI50 [6] | GI50 [7] | GI50 [8] | GI50 [9] | GI50 [10]
CC/C(C)=C1\CCC(CN(C)C)C1=O (stereo not given) | 33.2 µM | 46.5 µM | 43.2 µM | 33.4 µM | 43.7 µM | 40.7 µM | 91.5 µM | 43.2 µM | 40.4 µM | 32 µM | – | – | – | – | – | – | – | – | – | –
CS(=O)(=O)CCNCc1ccoc1-c1ccc2ncnc(Nc3ccc(OCc4ccccc4)cc3)c2c1 | > 25 µM | > 25 µM | > 25 µM | > 25 µM | > 25 µM | > 25 µM | > 25 µM | > 25 µM | > 25 µM | > 25 µM | > 25 µM | 9.55 µM | > 25 µM | 11.4 µM | 24.4 µM | > 25 µM | 9.74 µM | > 16.9 µM | 7.25 µM | > 25 µM
Cc1c2ccccc2c(C)n2c1nc1cc(Cl)c(Cl)cc12 | > 100 µM | > 100 µM | > 100 µM | > 100 µM | 9.71 µM and 77.1 µM | > 100 µM | > 100 µM | 44.7 µM | > 100 µM | > 100 µM | 26 µM | 31 µM | > 100 µM | 27.4 µM | 17.5 µM | 25.2 µM | 25.7 µM | 12.9 µM | > 100 µM | 22.4 µM
O=C1CC2OCC=C3CN4CCC5(C(=O)O)C(N1)C2C3CC45 (stereo not given) | > 100 µM | > 100 µM | > 100 µM | > 100 µM | > 100 µM | > 100 µM | > 100 µM | > 100 µM | > 100 µM | > 100 µM | – | – | – | – | – | – | – | – | – | –

Reference: PubChem BioAssay (NCI)
